Patent publication US20100121048A1, “Cyclic Amine Compound and Use Thereof for the Prophylaxis or Treatment of Hypertension” (priority 2006, published 2010)

Molecular target: T1, Human renin (Homo sapiens, UniProt P00797)
T1 construct: taking the active type (67-406); made in house; host or cells: FreeStyle 293-F cells (transient expression of pcDNA3.1(+)/hREN)
T1 sequence (P00797 67-406): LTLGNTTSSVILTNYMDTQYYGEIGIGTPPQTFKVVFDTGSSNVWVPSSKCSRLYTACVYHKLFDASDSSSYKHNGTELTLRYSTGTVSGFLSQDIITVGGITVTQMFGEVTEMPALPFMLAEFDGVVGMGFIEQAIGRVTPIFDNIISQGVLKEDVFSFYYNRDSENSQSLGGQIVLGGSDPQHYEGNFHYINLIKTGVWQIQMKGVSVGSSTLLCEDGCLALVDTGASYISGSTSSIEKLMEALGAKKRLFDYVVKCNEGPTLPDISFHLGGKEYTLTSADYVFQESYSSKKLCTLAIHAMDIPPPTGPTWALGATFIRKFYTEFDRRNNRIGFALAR
Assay: Measurement of renin inhibition value (human renin, FITC substrate peptide, capillary electrophoresis)
Type: biochemical
Conditions: active type renin (67-406), pH 6.0, 37° C., 30 min; for inhibition at 1 µM: test compound 1 μM, read-out: Human Renin Inhibitory Activity: inhibitory activity (%) at 1 μM; for inhibition at 10 µM: test compound 10 μM, read-out: Human Renin Inhibitory Activity: inhibitory activity (%) at 10 μM
Description: Human renin was obtained by expressing preprorenin (1-406) in an animal cell, treating the prorenin (24-406) contained in the culture supernatant with trypsin, and taking the active type (67-406).
A plasmid DNA to express human renin in HEK293 cells was prepared as follows. PCR was carried out using human renal cDNA (Clontech Laboratories, Inc., Marathon Ready cDNA) as the template and using two synthetic DNAs (5′-[…]-3′ AND 5′-[…]-3′), and the obtained fragments were cloned using a TOPO TA Cloning Kit (Invitrogen Corp.). The obtained fragments were subcloned into pcDNA3.1(+) that had been cleaved by HindIII and BamHI, thus to obtain a plasmid DNA for human preprorenin expression (PcDNA3.1(+)/hREN).
Expression of human preprorenin was conducted using FreeStyle 293 Expression System (Invitrogen Corp.). According to the manual accompanying the FreeStyle 293 Expression System, the plasmid DNA for human preprorenin expression (pcDNA3.1(+)/hREN) constructed in Experimental Example 1 was used to conduct transient expression by FreeStyle 293-F cells. After transfection of the plasmid DNA, the cells were subjected to shaking culture under the conditions of 37° C., 8% CO2 and 125 rpm for 3 days. A 600-ml aliquot of the culture solution was centrifuged at 2,000 rpm for 10 min to recover the culture supernatant containing prorenin (24-406). The culture supernatant was concentrated by ultrafiltration using a PM10 membrane (Millipore, Inc.) to a volume of about 50 ml, and then was dialyzed against 20 mM Tris-hydrochloric acid (pH 8.0). The dialyzate was fed to a 6-ml RESOURCE Q column (Amersham Biosciences, Inc.) equilibrated with 20 mM Tris-hydrochloric acid (pH 8.0) at a flow rate of 3 ml/min to adsorb the prorenin (24-406). After washing the column with the buffer solution used in the equilibration, elution was carried out by means of a linear concentration gradient of sodium chloride from 0 M to 0.4 M. The fraction containing prorenin (24-406) was collected and concentrated using Vivaspin 20 (molecular weight cut off 10,000; Vivascience, Inc.) to a volume of about 2 ml.
The concentrated liquid was subjected to gel filtration chromatography using HiLoad 16/60 Superdex 200 pg (Amersham Biosciences, Inc.) equilibrated with 20 mM Tris-hydrochloric acid (pH 8.0) containing 0.15 M sodium chloride, at a flow rate of 1.4 ml/min, thus to obtain 3.6 mg of purified prorenin (24-406).
To 3.6 mg of prorenin (24-406) was dissolved in 5.2 ml of 0.1 M Tris-hydrochloric acid (pH 8.0), 12 μg of trypsin (Roche Diagnostics Corp.) was added, and the mixture was allowed to react at 28° C. for 55 min to carry out activation of renin. After the reaction, 0.4 ml of immobilized trypsin inhibitor (Pierce Biotechnology, Inc.) was added to remove the trypsin used in the activation by adsorption. The reaction liquid containing the active type renin was concentrated using Vivaspin 20 (molcular weight cut off 10,000; Vivascience, Inc.), and was diluted with 20 mM Tris-hydrochloric acid (pH 8.0). The diluted liquid was fed to a TSKgel DEAE-5 PW column (7.5 mm I.D.×75 mm, Tosoh Corp.) equilibrated with 20 mM Tris-hydrochloric acid (pH 8.0) at a flow rate of 1 ml/min to adsorb the active type renin (67-406). The column was washed with the buffer solution used for the equilibration, and then elution was carried out by means of a sodium chloride linear concentration gradient from 0 M to 0.3 M, thus to obtain 1.5 mg of a purified product of active type renin (67-406).
5 μl each of the test compound (containing 50% DMSO) was added to each well of a 384-well black plate (Nalge Nunc International Co., Ltd.). Renin was diluted with a buffer solution for reaction (20 mM citric acid-sodium citrate (pH 6.0)) to a concentration of 0.5 μg/ml, and 35 μl each of the dilution was added to each well. […]

| Structure (SMILES) | inhibition at 1 µM [%] | inhibition at 10 µM [%] |
| --- | --- | --- |
| O=C(O)c1ccc(C[C@@H]2CNCCN2C(=O)c2ncn(-c3cccc(N4CCOCC4)c3)c2-c2ccccc2)cc1 [Example 161, 4-[((2R)-1-{[1-(3-morpholinophenyl)-5-phenyl-1H-imidazol-4-yl]carbonyl}piperazin-2-yl)methyl]benzoic acid] | 100 | 101 |
| CS(=O)(=O)c1ccc(COC[C@@H]2CNCCN2C(=O)c2ncn(-c3cccc(N4CCOCC4)c3)c2-c2ccccc2)cc1 [Example 472, 4-[3-(4-{[(2S)-2-({[4-(methylsulfonyl)benzyl]oxy}methyl)piperazin-1-yl]carbonyl}-5-phenyl-1H-imidazol-1-yl)phenyl]morpholine] | 100 | 102 |
| COc1cccc(-n2c(C)cc(C(=O)N3CCNC[C@H]3Cc3ccccc3)c2-c2ccccc2)c1OC [Example 43, (2R)-2-benzyl-1-{[1-(2,3-dimethoxyphenyl)-5-methyl-2-phenyl-1H-pyrrol-3-yl]carbonyl}piperazine] | 104 | 106 |
| O=C(c1ncn(C2Cc3ccccc3C2)c1-c1ccccc1)N1CCNC[C@H]1Cc1ccccc1 [Example 73, (2R)-2-benzyl-1-{[1-(2,3-dihydro-1H-inden-2-yl)-5-phenyl-1H-imidazol-4-yl]carbonyl}piperazine] | 97 | 101 |
| COc1ccc(S(=O)(=O)N2CCCC(n3cnc(C(=O)N4CCNC[C@H]4Cc4ccccc4)c3-c3ccccc3)C2)cn1 (stereo partly drawn) [Example 477, (2R)-2-benzyl-1-[(1-{1-[(6-methoxypyridin-3-yl)sulfonyl]piperidin-3-yl}-5-phenyl-1H-imidazol-4-yl)carbonyl]piperazine] | 102 | 104 |
| O=C(c1ncn(-c2cccc(N3CCOCC3)c2)c1-c1ccccc1)N1CCNC[C@H]1Cc1ccccc1 [Example 56, 4-(3-(4-{[(2R)-2-benzylpiperazin-1-yl]carbonyl}-5-phenyl-1H-imidazol-1-yl)phenyl]morpholine] | 104 | 103 |
| O=C(C[C@H](CCc1ccccc1)n1cnc(C(=O)N2CCNC[C@H]2Cc2ccccc2)c1-c1ccccc1)N1CCOCC1 [Example 478, 4-[(3S)-3-(4-{[(2R)-2-benzylpiperazin-1-yl]carbonyl}-5-phenyl-1H-imidazol-1-yl)-5-phenylpentanoyl]morpholine] | 99 | 101 |
| CCCCNc1ccccc1-n1ccc(C(=O)N2CCNCC2Cc2ccccc2)c1-c1ccccc1 (racemic) [Example 99, 2-(3-[(2-benzylpiperazin-1-yl)carbonyl]-2-phenyl-1H-pyrrol-1-yl}-N-butylaniline] | 105 | 107 |
| O=C(c1ncn(C2CCCN(S(=O)(=O)c3ccccc3)C2)c1-c1ccccc1)N1CCNC[C@H]1Cc1ccccc1 (stereo partly drawn) [Example 476, (2R)-2-benzyl-1-({5-phenyl-1-[1-(phenylsulfonyl)piperidin-3-yl]-1H-imidazol-4-yl}carbonyl)piperazine] | 99 | 99 |
| Cc1cc(C(=O)N2CCNC[C@H]2Cc2ccccc2)c(-c2ccccc2)n1-c1cccc(N2CCOCC2)c1 [Example 105, 4-(3-(3-{[(2R)-2-benzylpiperazin-1-yl]carbonyl}-5-methyl-2-phenyl-1H-pyrrol-1-yl)phenyl]morpholine] | 102 | 104 |
| COc1cccc(-n2cnc(C(=O)N3CCNC[C@H]3Cc3ccccc3)c2-c2ccccc2)c1OC [Example 57, (2R)-2-benzyl-1-([1-(2,3-dimethoxyphenyl)-5-phenyl-1H-imidazol-4-yl]carbonyl}piperazine] | 108 | 108 |
| COc1nc(C(=O)N2CCNC[C@H]2Cc2ccccc2)c(-c2ccccc2)n1-c1ccccc1 [Example 475, (2R)-2-benzyl-1-[(2-methoxy-1,5-diphenyl-1H-imidazol-4-yl)carbonyl]piperazine] | 97 | 99 |
